{
  "source": "paper PMC8222254",
  "about": "“Self-assembly of an anion receptor with metal-dependent kinase inhibition and potent in vitro anti-cancer properties” (Nature Communications, 2021)",
  "key": {"HCT116 p53+/+": {"tested_on": "HCT116 p53+/+", "test": "Confocal imaging of autophagic cells (CYTO-ID)", "assay_type": "cell-based, human", "conditions": "3.125 µM, 40 h", "procedure": "Cells were seeded in Lumox chamber slides (8-well, Sarstedt) at a density of 1.25 × 10^4 cells/well (ARPE-19) or 5.625 × 10^4 cells/well (HCT116 p53^−/− and HCT116 p53^+/+). 24 h after seeding, cells were treated with 3.125 μM of [L2Cu3]^6+, [L2Zn3]^6+, [L2Mn3]^6+, or vehicle control for 40 h before removal and addition of CYTO-ID Green autophagic dye (1:500 dilution, Enzo Life Sciences) and Hoechst 3342 nuclear counter stain for 30 min at 37 °C. Media was then replaced before imaging using a Zeiss LSM880 confocal laser scanning microscope."}, "[1]": {"target": "140 purified human kinases (Homo sapiens, UniProt Q9H4A3)", "test": "Kinase inhibition screen, cell-free 33P ATP assay at 10 μM", "assay_type": "biochemical", "conditions": "WNK1", "outline": "(§1)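 Each complex tested in duplicate at 10 μM; cell-free radiometric assay using ^33P ATP on purified enzymes. Hits mapped by HGNC symbol onto the kinome tree.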"}, "[2]": {"target": "140 purified human kinases (Homo sapiens, UniProt P06239)", "sequence (P06239 whole entry)": "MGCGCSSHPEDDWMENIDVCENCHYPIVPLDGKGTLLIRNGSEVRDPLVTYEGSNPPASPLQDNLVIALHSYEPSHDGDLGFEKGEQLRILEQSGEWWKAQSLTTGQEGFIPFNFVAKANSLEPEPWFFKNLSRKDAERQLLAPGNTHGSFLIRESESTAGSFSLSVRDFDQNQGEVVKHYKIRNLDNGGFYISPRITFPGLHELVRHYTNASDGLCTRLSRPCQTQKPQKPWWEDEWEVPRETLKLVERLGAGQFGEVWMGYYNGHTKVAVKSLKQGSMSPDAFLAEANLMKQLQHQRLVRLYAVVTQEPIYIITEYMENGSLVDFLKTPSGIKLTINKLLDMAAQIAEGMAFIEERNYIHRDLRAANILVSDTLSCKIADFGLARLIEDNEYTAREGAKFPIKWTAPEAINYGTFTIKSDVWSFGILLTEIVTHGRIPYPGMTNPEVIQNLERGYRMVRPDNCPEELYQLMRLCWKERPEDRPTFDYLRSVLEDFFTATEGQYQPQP", "test": "Kinase inhibition screen, cell-free 33P ATP assay at 10 μM", "assay_type": "biochemical", "conditions": "Lck", "outline": "as §1"}, "[3]": {"target": "140 purified human kinases (Homo sapiens, UniProt P53355)", "test": "Kinase inhibition screen, cell-free 33P ATP assay at 10 μM", "assay_type": "biochemical", "conditions": "DAPK1", "outline": "as §1"}, "[4]": {"target": "140 purified human kinases (Homo sapiens, UniProt O43353)", "sequence (O43353 whole entry)": "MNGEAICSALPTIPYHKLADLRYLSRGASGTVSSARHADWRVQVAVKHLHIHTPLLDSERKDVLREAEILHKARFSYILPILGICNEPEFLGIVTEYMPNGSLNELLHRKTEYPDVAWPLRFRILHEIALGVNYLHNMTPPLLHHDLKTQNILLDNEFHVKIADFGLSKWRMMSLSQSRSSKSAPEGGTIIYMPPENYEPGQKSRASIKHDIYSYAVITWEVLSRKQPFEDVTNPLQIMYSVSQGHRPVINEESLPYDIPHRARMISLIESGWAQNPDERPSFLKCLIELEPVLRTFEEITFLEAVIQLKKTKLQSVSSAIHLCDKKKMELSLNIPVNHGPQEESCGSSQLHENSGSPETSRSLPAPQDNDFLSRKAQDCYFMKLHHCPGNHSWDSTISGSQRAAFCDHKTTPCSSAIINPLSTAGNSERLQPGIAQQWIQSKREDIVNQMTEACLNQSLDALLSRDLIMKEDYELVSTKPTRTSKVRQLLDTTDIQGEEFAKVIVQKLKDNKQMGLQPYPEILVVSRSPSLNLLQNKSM", "test": "Kinase inhibition screen, cell-free 33P ATP assay at 10 μM", "assay_type": "biochemical", "conditions": "RIPK2", "outline": "as §1"}, "[5]": {"target": "140 purified human kinases (Homo sapiens, UniProt Q9BUB5)", "sequence (Q9BUB5 whole entry)": "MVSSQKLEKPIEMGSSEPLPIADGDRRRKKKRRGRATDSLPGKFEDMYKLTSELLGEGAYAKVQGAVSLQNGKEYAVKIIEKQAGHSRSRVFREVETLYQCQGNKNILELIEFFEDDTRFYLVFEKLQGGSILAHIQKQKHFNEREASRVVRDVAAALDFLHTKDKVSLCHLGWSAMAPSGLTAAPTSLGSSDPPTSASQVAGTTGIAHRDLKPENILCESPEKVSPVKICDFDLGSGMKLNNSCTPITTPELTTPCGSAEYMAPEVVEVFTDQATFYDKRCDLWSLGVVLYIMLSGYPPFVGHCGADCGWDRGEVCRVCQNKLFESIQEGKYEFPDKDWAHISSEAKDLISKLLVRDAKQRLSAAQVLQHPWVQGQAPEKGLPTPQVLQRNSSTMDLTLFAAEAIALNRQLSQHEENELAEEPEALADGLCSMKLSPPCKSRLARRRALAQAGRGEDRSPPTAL", "test": "Kinase inhibition screen, cell-free 33P ATP assay at 10 μM", "assay_type": "biochemical", "conditions": "MNK1", "outline": "as §1"}, "[6]": {"target": "140 purified human kinases (Homo sapiens, UniProt Q13627)", "test": "Kinase inhibition screen, cell-free 33P ATP assay at 10 μM", "assay_type": "biochemical", "conditions": "DYRK1A", "outline": "as §1"}, "[7]": {"target": "140 purified human kinases (Homo sapiens, UniProt Q86V86)", "test": "Kinase inhibition screen, cell-free 33P ATP assay at 10 μM", "assay_type": "biochemical", "conditions": "PIM3", "outline": "as §1"}, "[8]": {"target": "140 purified human kinases (Homo sapiens, UniProt P51812)", "sequence (P51812 whole entry)": "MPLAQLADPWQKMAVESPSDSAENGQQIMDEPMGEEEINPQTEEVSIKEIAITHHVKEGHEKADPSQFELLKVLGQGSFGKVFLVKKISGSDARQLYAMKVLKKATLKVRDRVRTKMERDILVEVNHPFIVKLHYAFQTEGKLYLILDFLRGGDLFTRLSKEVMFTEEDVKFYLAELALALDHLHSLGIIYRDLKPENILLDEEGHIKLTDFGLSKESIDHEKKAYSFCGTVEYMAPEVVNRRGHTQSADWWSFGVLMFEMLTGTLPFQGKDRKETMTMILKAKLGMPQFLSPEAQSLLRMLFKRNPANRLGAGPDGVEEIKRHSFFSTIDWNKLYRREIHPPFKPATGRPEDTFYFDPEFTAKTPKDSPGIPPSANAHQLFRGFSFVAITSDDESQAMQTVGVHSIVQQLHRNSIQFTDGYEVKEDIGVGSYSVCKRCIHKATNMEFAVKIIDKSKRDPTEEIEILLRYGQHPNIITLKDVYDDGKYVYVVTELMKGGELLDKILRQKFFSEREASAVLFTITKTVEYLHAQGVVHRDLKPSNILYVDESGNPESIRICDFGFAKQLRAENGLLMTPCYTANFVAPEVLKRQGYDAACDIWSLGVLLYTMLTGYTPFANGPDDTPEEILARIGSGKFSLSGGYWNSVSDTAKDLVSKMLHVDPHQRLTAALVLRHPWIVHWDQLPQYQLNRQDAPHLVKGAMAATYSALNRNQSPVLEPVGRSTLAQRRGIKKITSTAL", "test": "Kinase inhibition screen, cell-free 33P ATP assay at 10 μM", "assay_type": "biochemical", "conditions": "RSK2", "outline": "as §1"}, "[9]": {"target": "140 purified human kinases (Homo sapiens, UniProt Q6IQ55)", "sequence (Q6IQ55 whole entry)": "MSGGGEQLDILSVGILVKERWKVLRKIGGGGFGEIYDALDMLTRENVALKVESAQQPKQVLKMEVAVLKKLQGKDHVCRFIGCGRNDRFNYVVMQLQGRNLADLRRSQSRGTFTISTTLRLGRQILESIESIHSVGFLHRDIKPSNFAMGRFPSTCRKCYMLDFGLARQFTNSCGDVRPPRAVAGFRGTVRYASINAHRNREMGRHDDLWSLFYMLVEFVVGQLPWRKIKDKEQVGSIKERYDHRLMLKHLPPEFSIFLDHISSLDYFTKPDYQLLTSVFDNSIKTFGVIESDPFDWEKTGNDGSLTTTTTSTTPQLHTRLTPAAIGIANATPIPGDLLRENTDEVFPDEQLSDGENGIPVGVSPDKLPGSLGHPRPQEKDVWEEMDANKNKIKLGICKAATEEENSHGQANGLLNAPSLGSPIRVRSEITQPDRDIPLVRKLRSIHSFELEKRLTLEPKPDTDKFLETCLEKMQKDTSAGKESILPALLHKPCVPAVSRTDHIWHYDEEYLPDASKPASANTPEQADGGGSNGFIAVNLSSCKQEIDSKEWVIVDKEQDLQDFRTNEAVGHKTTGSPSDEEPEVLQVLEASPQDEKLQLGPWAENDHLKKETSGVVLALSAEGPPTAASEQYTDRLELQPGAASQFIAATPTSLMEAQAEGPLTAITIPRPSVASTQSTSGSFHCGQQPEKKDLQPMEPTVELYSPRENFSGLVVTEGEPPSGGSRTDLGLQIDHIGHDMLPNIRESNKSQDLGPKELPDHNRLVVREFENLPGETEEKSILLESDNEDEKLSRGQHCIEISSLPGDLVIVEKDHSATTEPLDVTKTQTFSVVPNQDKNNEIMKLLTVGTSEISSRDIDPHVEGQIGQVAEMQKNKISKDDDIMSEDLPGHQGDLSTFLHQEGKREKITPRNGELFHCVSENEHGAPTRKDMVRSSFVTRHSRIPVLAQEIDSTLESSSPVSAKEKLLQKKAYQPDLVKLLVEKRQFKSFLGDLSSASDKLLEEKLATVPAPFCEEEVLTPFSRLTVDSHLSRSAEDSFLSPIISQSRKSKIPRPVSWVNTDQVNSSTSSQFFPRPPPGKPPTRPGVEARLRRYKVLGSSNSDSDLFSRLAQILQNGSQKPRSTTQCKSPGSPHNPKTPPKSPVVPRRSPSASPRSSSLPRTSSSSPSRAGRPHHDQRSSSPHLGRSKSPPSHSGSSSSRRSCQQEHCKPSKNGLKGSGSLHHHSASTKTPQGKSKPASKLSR", "test": "Kinase inhibition screen, cell-free 33P ATP assay at 10 μM", "assay_type": "biochemical", "conditions": "TTBK2", "outline": "as §1"}, "[10]": {"target": "140 purified human kinases (Homo sapiens, UniProt Q5TCY1)", "test": "Kinase inhibition screen, cell-free 33P ATP assay at 10 μM", "assay_type": "biochemical", "conditions": "TTBK1", "outline": "as §1"}, "[11]": {"target": "T1, 140 purified human kinases (Homo sapiens, UniProt P43403)", "T1 sequence (P43403 1-619)": "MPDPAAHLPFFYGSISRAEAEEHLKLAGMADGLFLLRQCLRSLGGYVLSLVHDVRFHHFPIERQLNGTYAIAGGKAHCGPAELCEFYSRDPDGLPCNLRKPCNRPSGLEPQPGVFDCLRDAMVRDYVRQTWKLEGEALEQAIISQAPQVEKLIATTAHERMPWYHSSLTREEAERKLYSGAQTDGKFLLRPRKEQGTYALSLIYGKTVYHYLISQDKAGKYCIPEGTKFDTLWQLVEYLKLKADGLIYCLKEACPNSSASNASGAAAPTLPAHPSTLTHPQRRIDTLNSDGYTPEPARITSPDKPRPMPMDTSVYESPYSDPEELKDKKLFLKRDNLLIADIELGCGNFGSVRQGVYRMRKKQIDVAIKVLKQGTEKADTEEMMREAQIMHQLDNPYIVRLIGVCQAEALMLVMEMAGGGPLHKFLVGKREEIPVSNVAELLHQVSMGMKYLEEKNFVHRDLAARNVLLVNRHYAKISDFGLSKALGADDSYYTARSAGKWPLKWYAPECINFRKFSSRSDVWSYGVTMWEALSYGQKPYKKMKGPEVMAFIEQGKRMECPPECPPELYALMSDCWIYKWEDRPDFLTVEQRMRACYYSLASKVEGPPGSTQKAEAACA", "test": "Kinase inhibition screen, cell-free 33P ATP assay at 10 μM", "assay_type": "biochemical", "conditions": "ZAP70", "outline": "as §1"}, "[12]": {"target": "140 purified human kinases (Homo sapiens, UniProt P49841)", "sequence (P49841 whole entry)": "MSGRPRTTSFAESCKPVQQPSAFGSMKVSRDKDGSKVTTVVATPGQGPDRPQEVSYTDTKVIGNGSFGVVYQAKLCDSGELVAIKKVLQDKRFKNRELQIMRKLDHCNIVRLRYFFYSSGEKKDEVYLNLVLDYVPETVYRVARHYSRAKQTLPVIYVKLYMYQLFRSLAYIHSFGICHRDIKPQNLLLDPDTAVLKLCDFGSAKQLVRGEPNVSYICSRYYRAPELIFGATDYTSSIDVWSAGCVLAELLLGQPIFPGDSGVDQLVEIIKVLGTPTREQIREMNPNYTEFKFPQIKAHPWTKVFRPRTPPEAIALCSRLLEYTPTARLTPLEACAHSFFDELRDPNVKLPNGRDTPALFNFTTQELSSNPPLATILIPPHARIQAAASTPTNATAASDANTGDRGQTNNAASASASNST", "test": "Kinase inhibition screen, cell-free 33P ATP assay at 10 μM", "assay_type": "biochemical", "conditions": "GSK3b", "outline": "as §1"}},
  "note": "Several values for one entry are separate records, joined by “and”; a condition that tells them apart may be missing. Equal entries are not always repeated.",
  "data": [
    {"molecule": "[Mn+2].[Mn+2].[Mn+2].c1ccc(-c2csc(NCCN(CCNc3nc(-c4ccccn4)cs3)CCNc3nc(-c4ccccn4)cs3)n2)nc1.c1ccc(-c2csc(NCCN(CCNc3nc(-c4ccccn4)cs3)CCNc3nc(-c4ccccn4)cs3)n2)nc1", "note": "[[L2Mn3]6+]", "values": [
      {"measurement": "induction of autophagy (CYTO-ID)", "setting": "HCT116 p53+/+", "result": "evident"}
    ]},
    {"molecule": "CC(=O)[O-].CC(=O)[O-].CC(=O)[O-].CC(=O)[O-].CC(=O)[O-].CC(=O)[O-].[Zn+2].[Zn+2].[Zn+2].c1ccc(-c2csc(NCCN(CCNc3nc(-c4ccccn4)cs3)CCNc3nc(-c4ccccn4)cs3)n2)nc1.c1ccc(-c2csc(NCCN(CCNc3nc(-c4ccccn4)cs3)CCNc3nc(-c4ccccn4)cs3)n2)nc1", "note": "[[L2Zn3]6+]", "values": [
      {"measurement": "induction of autophagy (CYTO-ID)", "setting": "HCT116 p53+/+", "result": "barely detectable"},
      {"measurement": "% Inhibition, Mean", "setting": "[1]", "result": 2.3, "unit": "%"},
      {"measurement": "mean % activity", "setting": "[1]", "result": 98, "unit": "%"},
      {"measurement": "% activity", "setting": "[1]; duplicate runs", "result": "90% and 106%"},
      {"measurement": "% Inhibition, Mean", "setting": "[2]", "result": 44, "unit": "%"},
      {"measurement": "% Inhibition, Run 1 / Run 2", "setting": "[2]", "result": "51% and 36%"},
      {"measurement": "mean % activity", "setting": "[2]", "result": 56, "unit": "%"},
      {"measurement": "% activity", "setting": "[2]; duplicate runs", "result": "49% and 64%"},
      {"measurement": "% Activation, Mean value", "setting": "[3]", "result": 16, "unit": "%"},
      {"measurement": "% Inhibition, Mean", "setting": "[3]", "result": -16, "unit": "%"},
      {"measurement": "% Inhibition, Run 1 / Run 2", "setting": "[3]", "result": "-12% and -21%"},
      {"measurement": "mean % activity", "setting": "[3]", "result": 116, "unit": "%"},
      {"measurement": "% Activity Run 1", "setting": "[3]; 10 µM", "result": 112.0, "unit": "%"},
      {"measurement": "% Activity Run 2", "setting": "[3]; 10 µM", "result": 121.0, "unit": "%"},
      {"measurement": "% activity", "setting": "[3]; duplicate runs", "result": "112% and 121%"},
      {"measurement": "% Inhibition, Mean", "setting": "[4]", "result": 5.55, "unit": "%"},
      {"measurement": "% Inhibition, Run 1 / Run 2", "setting": "[4]", "result": "8% and 3%"},
      {"measurement": "mean % activity", "setting": "[4]", "result": 94, "unit": "%"},
      {"measurement": "% activity", "setting": "[4]; duplicate runs", "result": "92% and 97%"},
      {"measurement": "% Activation, Mean value", "setting": "[5]", "result": 14, "unit": "%"},
      {"measurement": "% Inhibition, Mean", "setting": "[5]", "result": -14, "unit": "%"},
      {"measurement": "% Inhibition, Run 1 / Run 2", "setting": "[5]", "result": "-12% and -15%"},
      {"measurement": "mean % activity", "setting": "[5]", "result": 114, "unit": "%"},
      {"measurement": "% Activity Run 1", "setting": "[5]; 10 µM", "result": 112.0, "unit": "%"},
      {"measurement": "% Activity Run 2", "setting": "[5]; 10 µM", "result": 115.0, "unit": "%"},
      {"measurement": "% activity", "setting": "[5]; duplicate runs", "result": "112% and 115%"},
      {"measurement": "% Inhibition, Mean", "setting": "[6]", "result": 28, "unit": "%"},
      {"measurement": "% Inhibition, Run 1 / Run 2", "setting": "[6]", "result": "34% and 22%"},
      {"measurement": "mean % activity", "setting": "[6]", "result": 72, "unit": "%"},
      {"measurement": "% activity", "setting": "[6]; duplicate runs", "result": "67% and 78%"},
      {"measurement": "% Inhibition, Mean", "setting": "[7]", "result": 36, "unit": "%"},
      {"measurement": "% Inhibition, Run 1 / Run 2", "setting": "[7]", "result": "38% and 35%"},
      {"measurement": "mean % activity", "setting": "[7]", "result": 64, "unit": "%"},
      {"measurement": "% activity", "setting": "[7]; duplicate runs", "result": "62% and 65%"},
      {"measurement": "% Inhibition, Mean", "setting": "[8]", "result": 44, "unit": "%"},
      {"measurement": "% Inhibition, Run 1 / Run 2", "setting": "[8]", "result": "50% and 39%"},
      {"measurement": "mean % activity", "setting": "[8]", "result": 56, "unit": "%"},
      {"measurement": "% activity", "setting": "[8]; duplicate runs", "result": "50% and 61%"},
      {"measurement": "% Activation, Mean value", "setting": "[9]", "result": 0.5, "unit": "%"},
      {"measurement": "% Inhibition, Mean", "setting": "[9]", "result": -0.5, "unit": "%"},
      {"measurement": "mean % activity", "setting": "[9]", "result": 101, "unit": "%"},
      {"measurement": "% activity", "setting": "[9]; duplicate runs", "result": "91% and 110%"},
      {"measurement": "% Activation, Mean value", "setting": "[10]", "result": 8, "unit": "%"},
      {"measurement": "% Inhibition, Mean", "setting": "[10]", "result": -8, "unit": "%"},
      {"measurement": "mean % activity", "setting": "[10]", "result": 108, "unit": "%"},
      {"measurement": "% activity", "setting": "[10]; duplicate runs", "result": "97% and 119%"},
      {"measurement": "% Inhibition, Mean", "setting": "[11]", "result": 89, "unit": "%"},
      {"measurement": "% Inhibition, Run 1 / Run 2", "setting": "[11]", "result": "91% and 88%"},
      {"measurement": "mean % activity", "setting": "[11]", "result": 11, "unit": "%"},
      {"measurement": "% Activity inhibition Mean", "setting": "[11]; 10 µM", "result": 89.0, "unit": "%"},
      {"measurement": "% Activity inhibition Run 1", "setting": "[11]; 10 µM", "result": 90, "unit": "%"},
      {"measurement": "% Activity inhibition Run 2", "setting": "[11]; 10 µM", "result": 88, "unit": "%"},
      {"measurement": "% Activity remaining Run 1", "setting": "[11]; 10 µM", "result": 10, "unit": "%"},
      {"measurement": "% Activity remaining Run 2", "setting": "[11]; 10 µM", "result": 12, "unit": "%"},
      {"measurement": "% activity", "setting": "[11]; duplicate runs", "result": "9.5% and 12%"},
      {"measurement": "% Inhibition, Mean", "setting": "[12]", "result": 16, "unit": "%"},
      {"measurement": "% Inhibition, Run 1 / Run 2", "setting": "[12]", "result": "20% and 11%"},
      {"measurement": "mean % activity", "setting": "[12]", "result": 84, "unit": "%"},
      {"measurement": "% activity", "setting": "[12]; duplicate runs", "result": "80% and 89%"}
    ]}
  ]
}
